Source: ChEMBL document CHEMBL2074467, “Transport characteristics of differently charged cephalosporin antibiotics in oocytes expressing the cloned intestinal peptide transporter PepT1 and in human intestinal Caco-2 cells” (J Pharmacol Exp Ther, 1996)

Key:
Type in all cases: functional, cell-based
[1] = target: T1, Solute carrier family 15 member 1 (Homo sapiens) (UniProt P46059); test: TP_TRANSPORTER: inhibition of Cefadroxil uptake (apical pH 6.5, Cefadroxil: 1000 uM, Loracarbef: 10000 uM) in Caco-2 cells; design: scale not given: the % may be the effect or the level left
T1 sequence (whole entry): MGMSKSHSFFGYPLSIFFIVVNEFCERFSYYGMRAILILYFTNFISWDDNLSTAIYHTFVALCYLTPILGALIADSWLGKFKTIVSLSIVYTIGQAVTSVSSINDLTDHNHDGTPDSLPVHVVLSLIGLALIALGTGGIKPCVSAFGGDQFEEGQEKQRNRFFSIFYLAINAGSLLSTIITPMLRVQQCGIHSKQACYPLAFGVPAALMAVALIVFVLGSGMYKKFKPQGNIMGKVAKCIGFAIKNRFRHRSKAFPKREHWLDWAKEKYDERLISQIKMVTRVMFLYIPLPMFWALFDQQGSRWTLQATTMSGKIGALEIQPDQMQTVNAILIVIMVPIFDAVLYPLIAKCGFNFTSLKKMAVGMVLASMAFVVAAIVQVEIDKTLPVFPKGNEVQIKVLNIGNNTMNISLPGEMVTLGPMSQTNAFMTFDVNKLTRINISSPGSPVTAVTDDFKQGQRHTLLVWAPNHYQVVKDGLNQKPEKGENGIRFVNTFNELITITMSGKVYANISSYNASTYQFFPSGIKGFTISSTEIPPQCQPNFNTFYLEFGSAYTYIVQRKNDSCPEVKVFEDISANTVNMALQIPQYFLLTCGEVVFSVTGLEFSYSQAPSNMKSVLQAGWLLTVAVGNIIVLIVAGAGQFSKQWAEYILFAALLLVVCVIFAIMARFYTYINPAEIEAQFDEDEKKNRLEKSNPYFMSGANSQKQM

[2] = target: T1, Solute carrier family 15 member 1 (Homo sapiens); test: TP_TRANSPORTER: inhibition of Cefadroxil uptake (apical pH 5.5, Cefadroxil: 1000 uM, Loracarbef: 10000 uM) in Caco-2 cells; design: scale not given: the % may be the effect or the level left
[3] = target: T2, Solute carrier family 15 member 1 (Homo sapiens, UniProt P46059); test: TP_TRANSPORTER: inhibition of Cefixim uptake in Caco-2 cells
T2 sequence (P46059 whole entry): T1 sequence (whole entry)

[4] = target: T2, Solute carrier family 15 member 1; test: TP_TRANSPORTER: inhibition of Cefadroxil uptake in Caco-2 cells
[5] = target: T1, Solute carrier family 15 member 1 (Homo sapiens); test: TP_TRANSPORTER: inhibition of Cefadroxil uptake (apical pH 6.5, Cefadroxil: 1000 uM, Amoxicillin: 10000 uM) in Caco-2 cells; design: scale not given: the % may be the effect or the level left
[6] = target: T1, Solute carrier family 15 member 1 (Homo sapiens); test: TP_TRANSPORTER: inhibition of Cefadroxil uptake (apical pH 5.5, Cefadroxil: 1000 uM, Amoxicillin: 10000 uM) in Caco-2 cells; design: scale not given: the % may be the effect or the level left

## N[C@@H](C(=O)N[C@@H]1C(=O)N2C(C(=O)O)=C(Cl)CC[C@H]12)c1ccccc1
[1]
  Activity: 60.3%
[2]
  Activity: 72.6%

## CC1=C(C(=O)O)N2C(=O)[C@@H](NC(=O)[C@H](N)c3ccc(O)cc3)[C@H]2SC1 [CEFADROXIL]
[3]
  Ki: 1.45 mM

## C=CC1=C(C(=O)O)N2C(=O)[C@@H](NC(=O)/C(=N\OCC(=O)O)c3csc(N)n3)[C@H]2SC1 [CEFIXIME]
[4]
  Ki: 1.31 mM

## CC1(C)S[C@@H]2[C@H](NC(=O)[C@H](N)c3ccc(O)cc3)C(=O)N2[C@H]1C(=O)O
[5]
  Activity: 62.9%
[6]
  Activity: 85.7%
